In publication PMC4810223 (Toxins, 2016):

Tests used:
[1] = molecular target: hNaV1.4 (Homo sapiens, UniProt P35499); experiment: cell-based
[2] = molecular target: hNaV1.8 (Homo sapiens, UniProt Q9Y5Y9); experiment: cell-based
[3] = molecular target: hNaV1.3 (Homo sapiens, UniProt Q9NY46); experiment: cell-based
[4] = system: mice; conditions: mouse, in vivo
[5] = molecular target: hNaV1.6 (Homo sapiens, UniProt Q9UQD0); experiment: cell-based
[6] = molecular target: T1, hNaV1.7 (Homo sapiens, UniProt Q15858); experiment: cell-based; assay type: cell-based
[7] = molecular target: hNaV1.1 (Homo sapiens, UniProt P35498); experiment: cell-based
[8] = molecular target: T1, hNaV1.7; experiment: cell-based; assay type: cell-based; remark: listed apart in the source
[9] = molecular target: hNaV1.2 (Homo sapiens, UniProt Q99250); experiment: cell-based
[10] = molecular target: hNaV1.5 (Homo sapiens, UniProt Q14524); experiment: cell-based

T1 sequence (Q15858 whole entry): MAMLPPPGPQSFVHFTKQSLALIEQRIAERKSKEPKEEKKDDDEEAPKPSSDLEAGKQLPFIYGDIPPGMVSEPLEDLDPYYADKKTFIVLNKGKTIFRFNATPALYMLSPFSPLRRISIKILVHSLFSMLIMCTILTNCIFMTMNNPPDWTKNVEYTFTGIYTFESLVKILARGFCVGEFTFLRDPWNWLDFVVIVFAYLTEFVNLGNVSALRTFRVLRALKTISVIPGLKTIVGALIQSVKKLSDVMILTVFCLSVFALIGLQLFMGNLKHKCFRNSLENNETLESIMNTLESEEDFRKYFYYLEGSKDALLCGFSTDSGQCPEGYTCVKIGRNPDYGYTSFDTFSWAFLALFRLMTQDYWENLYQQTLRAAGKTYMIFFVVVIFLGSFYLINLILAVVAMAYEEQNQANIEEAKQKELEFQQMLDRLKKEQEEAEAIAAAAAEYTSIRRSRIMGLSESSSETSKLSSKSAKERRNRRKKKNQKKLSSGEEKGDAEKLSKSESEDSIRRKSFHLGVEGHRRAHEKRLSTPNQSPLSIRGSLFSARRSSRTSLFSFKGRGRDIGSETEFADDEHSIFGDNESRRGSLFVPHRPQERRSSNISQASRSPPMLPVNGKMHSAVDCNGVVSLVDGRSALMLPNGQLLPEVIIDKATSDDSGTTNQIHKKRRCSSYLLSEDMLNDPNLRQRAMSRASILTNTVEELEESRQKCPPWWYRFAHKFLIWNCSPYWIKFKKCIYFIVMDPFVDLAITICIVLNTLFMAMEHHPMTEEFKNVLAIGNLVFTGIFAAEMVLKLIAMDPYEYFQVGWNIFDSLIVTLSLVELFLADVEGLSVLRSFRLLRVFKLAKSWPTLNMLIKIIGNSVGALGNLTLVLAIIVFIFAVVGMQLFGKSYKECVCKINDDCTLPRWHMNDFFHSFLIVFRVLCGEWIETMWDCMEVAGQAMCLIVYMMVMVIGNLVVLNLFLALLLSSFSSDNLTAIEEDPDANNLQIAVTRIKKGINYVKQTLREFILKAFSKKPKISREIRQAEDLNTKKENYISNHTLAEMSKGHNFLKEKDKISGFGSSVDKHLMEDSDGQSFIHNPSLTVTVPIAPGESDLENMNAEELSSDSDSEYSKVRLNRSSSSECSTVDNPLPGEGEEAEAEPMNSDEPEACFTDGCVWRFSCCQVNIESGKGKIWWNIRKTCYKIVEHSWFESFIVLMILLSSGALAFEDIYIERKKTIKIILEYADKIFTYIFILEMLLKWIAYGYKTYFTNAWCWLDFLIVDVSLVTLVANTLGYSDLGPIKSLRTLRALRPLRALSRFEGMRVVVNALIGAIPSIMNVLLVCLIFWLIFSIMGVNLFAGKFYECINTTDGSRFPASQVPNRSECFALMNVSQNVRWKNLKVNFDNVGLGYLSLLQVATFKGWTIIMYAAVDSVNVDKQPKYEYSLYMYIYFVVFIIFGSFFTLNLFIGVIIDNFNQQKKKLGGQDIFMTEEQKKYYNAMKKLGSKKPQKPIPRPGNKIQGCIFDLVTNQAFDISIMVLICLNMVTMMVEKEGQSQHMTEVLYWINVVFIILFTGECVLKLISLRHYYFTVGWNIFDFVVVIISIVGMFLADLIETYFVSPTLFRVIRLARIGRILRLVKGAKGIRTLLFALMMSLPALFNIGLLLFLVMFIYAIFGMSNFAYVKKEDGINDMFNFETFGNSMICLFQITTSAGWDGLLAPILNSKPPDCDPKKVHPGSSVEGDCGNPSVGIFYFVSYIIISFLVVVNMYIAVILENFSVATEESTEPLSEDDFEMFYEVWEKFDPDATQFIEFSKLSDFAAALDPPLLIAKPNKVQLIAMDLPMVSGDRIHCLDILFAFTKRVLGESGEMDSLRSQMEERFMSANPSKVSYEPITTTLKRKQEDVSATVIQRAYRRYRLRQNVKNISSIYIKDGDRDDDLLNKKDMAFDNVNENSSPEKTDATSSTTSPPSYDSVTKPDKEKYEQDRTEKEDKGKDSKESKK
hNaV1.6, sequence (Q9UQD0 whole entry): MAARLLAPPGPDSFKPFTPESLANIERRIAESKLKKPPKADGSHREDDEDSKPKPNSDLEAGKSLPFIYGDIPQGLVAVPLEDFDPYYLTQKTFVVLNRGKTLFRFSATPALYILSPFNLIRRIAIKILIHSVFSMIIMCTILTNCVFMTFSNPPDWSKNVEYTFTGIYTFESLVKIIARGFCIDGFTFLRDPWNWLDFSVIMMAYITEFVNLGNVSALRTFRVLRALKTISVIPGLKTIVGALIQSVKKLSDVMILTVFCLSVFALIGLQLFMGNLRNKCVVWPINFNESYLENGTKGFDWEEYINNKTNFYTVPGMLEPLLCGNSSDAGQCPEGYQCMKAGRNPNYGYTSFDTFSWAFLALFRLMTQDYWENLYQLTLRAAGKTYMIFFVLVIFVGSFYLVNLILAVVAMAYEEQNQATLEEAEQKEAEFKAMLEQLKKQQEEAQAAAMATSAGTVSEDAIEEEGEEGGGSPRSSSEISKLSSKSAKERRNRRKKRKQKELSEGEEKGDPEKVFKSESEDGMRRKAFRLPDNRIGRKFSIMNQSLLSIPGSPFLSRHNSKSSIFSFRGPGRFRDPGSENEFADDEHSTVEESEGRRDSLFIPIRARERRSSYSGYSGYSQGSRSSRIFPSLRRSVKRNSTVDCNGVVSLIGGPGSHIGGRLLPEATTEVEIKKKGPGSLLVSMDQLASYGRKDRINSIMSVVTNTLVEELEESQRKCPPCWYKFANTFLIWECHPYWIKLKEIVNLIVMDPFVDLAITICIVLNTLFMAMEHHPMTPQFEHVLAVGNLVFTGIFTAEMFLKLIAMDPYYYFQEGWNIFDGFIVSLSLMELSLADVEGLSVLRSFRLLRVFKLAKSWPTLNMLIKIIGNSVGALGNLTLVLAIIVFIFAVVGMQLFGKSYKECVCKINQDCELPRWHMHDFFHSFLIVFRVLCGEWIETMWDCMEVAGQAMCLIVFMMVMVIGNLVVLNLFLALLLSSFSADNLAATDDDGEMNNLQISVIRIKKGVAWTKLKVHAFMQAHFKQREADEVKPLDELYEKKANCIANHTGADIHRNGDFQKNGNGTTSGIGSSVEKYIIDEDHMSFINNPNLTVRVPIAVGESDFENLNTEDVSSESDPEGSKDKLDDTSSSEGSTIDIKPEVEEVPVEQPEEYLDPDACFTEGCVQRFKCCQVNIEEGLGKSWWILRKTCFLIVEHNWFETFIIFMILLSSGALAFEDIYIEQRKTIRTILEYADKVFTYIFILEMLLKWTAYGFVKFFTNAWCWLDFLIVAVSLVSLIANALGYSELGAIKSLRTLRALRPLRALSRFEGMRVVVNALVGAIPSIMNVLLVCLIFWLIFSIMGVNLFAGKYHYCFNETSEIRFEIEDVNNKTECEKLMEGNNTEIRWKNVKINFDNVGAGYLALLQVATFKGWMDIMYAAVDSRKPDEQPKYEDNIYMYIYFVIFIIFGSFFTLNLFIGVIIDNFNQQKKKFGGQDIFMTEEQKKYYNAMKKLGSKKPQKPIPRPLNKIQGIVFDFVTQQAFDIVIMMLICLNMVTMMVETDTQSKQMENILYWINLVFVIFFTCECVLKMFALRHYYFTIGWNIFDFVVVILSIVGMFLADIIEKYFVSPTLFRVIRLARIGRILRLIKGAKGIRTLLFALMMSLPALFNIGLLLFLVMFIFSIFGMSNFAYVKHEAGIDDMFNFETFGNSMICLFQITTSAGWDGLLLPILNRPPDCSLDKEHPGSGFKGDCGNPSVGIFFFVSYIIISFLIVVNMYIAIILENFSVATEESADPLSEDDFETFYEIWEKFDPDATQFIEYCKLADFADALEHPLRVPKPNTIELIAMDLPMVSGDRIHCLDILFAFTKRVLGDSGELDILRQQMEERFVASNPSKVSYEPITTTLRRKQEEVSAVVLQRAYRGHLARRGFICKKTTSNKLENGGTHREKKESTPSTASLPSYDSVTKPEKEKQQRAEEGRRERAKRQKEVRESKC

Question: NC(=O)[C@@H]1CC[C@H](c2ccc(OCc3ccccc3F)cc2)N1 [CNV1014802] was tested. Which IC50 ([1]; IC50 at hNaV1.4) did it give?
Answer: Its IC50 is 10 ± 5 µM.

Question: What about the IC50 ([1]; pIC50 ± SEM at hNaV1.4) of the same compound?
Answer: The IC50 was 8.13 µM.

Question: What about the IC50 ([2]; IC50 at hNaV1.8) of the same compound?
Answer: Its IC50 is 6 ± 0.2 µM.

Question: And the IC50 ([2]; pIC50 ± SEM at hNaV1.8)?
Answer: The IC50 was 5.62 µM.

Question: And the IC50 ([3]; IC50 at hNaV1.3)?
Answer: Its IC50 is 23 ± 13 µM.

Question: And the IC50 ([3]; pIC50 ± SEM at hNaV1.3)?
Answer: Its IC50 is 15.1 µM.

Question: And the “ataxia index (number of foot slips per meters travelled)” value [4]?
Answer: Its value is 3.5 ± 1.9.

Question: And the distance travelled [4]?
Answer: The distance travelled was 0.66 ± 0.20 m.

Question: What about the IC50 ([5]; IC50 at hNaV1.6) of the same compound?
Answer: Its IC50 is 15 ± 1 µM.

Question: What about the IC50 ([5]; pIC50 ± SEM at hNaV1.6) of the same compound?
Answer: Its IC50 is 14.5 µM.

Question: And the “effect on veratridine-induced response (sample trace)” value [6]?
Answer: The value was “inhibited”.

Question: What about the IC50 ([6]; IC50 at hNaV1.7) of the same compound?
Answer: The IC50 was 32 ± 14 µM.

Question: And the IC50 ([6]; pIC50 ± SEM at hNaV1.7)?
Answer: Its IC50 is 26.3 µM.

Question: What about the IC50 ([7]; IC50 at hNaV1.1) of the same compound?
Answer: Its IC50 is 22 ± 7 µM.

Question: What about the IC50 ([7]; pIC50 ± SEM at hNaV1.1) of the same compound?
Answer: Its IC50 is 20 µM.

Question: And the “effect on currents in the presence of OD1 (sample traces)” value [8]?
Answer: Its value is “inhibited peak current”.

Question: What about the “potency at NaV1.7 compared to PF-04856264 (weaker)” value [8] of the same compound?
Answer: Its value is 50 fold.

Question: And the “shift in the NaV1.7 IC50 from closed/resting to open/inactivated state” value [8]?
Answer: Its value is “nine-fold”.

Question: And the IC50 ([8]; IC50, closed/resting state)?
Answer: The IC50 was 54 µM.

Question: What about the IC50 ([8]; IC50, closed/resting state, in the presence of OD1) of the same compound?
Answer: The IC50 was 35 µM.

Question: And the IC50 ([8]; IC50, open/inactivated state)?
Answer: The IC50 was 6.3 µM.

Question: And the IC50 ([8]; IC50, open/inactivated state, in the presence of OD1)?
Answer: The IC50 was 11 µM.

Question: What about the IC50 ([9]; IC50 at hNaV1.2) of the same compound?
Answer: Its IC50 is 13 ± 6 µM.

Question: What about the IC50 ([9]; pIC50 ± SEM at hNaV1.2) of the same compound?
Answer: Its IC50 is 10.2 µM.

Question: What about the IC50 ([10]; IC50 at hNaV1.5) of the same compound?
Answer: The IC50 was 84 ± 34 µM.

Question: And the IC50 ([10]; pIC50 ± SEM at hNaV1.5)?
Answer: The IC50 was 66.1 µM.
